Experimental data reported in patent publication US6825230B2, “Spiro and dispiro 1,2,4-trixolane antimalarials” (Medicines for Malaria Venture MMV, priority 2002, dated 2004).
≈ marks a conversion by molar mass, not a printed value.

Experiments:
[1] = tested on: ANKA strain of Plasmodium berghei; experiment: Single dose ED50/ED90/ED99 determination in infected mice; type: in vivo; details: single dose po in SSV on day 1 post-infection, parasitemia day 3, nonlinear fitting
Procedure: In the single dose ED50/ED98/ED99 determinations, Moro SPF or NMRI mice (group of three) infected with the ANKA strain of Plasmodium berghei were treated on day one post-infection. […] The SSV consists of 0.5% w/v CMC, 0.5% v/v benzyl alcohol, 0.4% v/v Tween 80, and 0.9% w/v sodium chloride in water. Antimalarial activity was measured by percent reduction in parasitemia on day three post-infection. The ED50/ED90 values were calculated by nonlinear fitting.
The ED50, ED90, and ED99 values were calculated by non-linear fitting with statistical program and were expressed in mg/kg.

[2] = tested on: Schistosoma mansoni adult worms (49-day-old); experiment: Effect on adult schistosomes (49-day-old) in infected mice; type: in vivo; details: single 400 mg/kg per os; for % reduction of adult worms growth at day 49 after per os application of 400 mg/kg, TWR (%): 49-day-old adults, total worm reduction rate; for Adult worms day 49, per os 400 mg/kg, DEAD WORM (%): percentage of dead worm in the liver
Procedure: Mice were infected with 100 Schistosoma mansoni cercariae on day 49 post-treatment. Each group was treated per os with OZ compounds at single doses of 200, 400, and 600 mg/kg. Untreated mice served as the control. All groups were killed 4 weeks after treatment and the liver and intestine were removed and separated. The liver and intestine were compressed and alive male and female worms could be seen and counted.

[3] = tested on: Schistosoma mansoni 21-day-old schistosomules; experiment: Effect on 21-day-old schistosomules in infected mice; type: in vivo; details: single 200 mg/kg per os, 21-day-old schistosomules; for % reduction of schistosomule growth at day 21 after per os application of 200 mg/kg, FWR (%): female worm reduction rate; for % reduction of schistosomule growth at day 21 after per os application of 200 mg/kg, TWR (%): total worm reduction rate
Procedure: Mice were infected with 100 Schistosoma mansoni cercariae on day 21 post-treatment. Each group was treated per os with trioxolanes at a single dose of 200 mg/kg. […] All groups were killed 4 weeks after treatment and the liver and intestine were removed and separated. The liver and intestine were compressed and alive male and female worms could be seen and counted. The effect of the compounds was evaluated by mean total and female worm burden.

[4] = tested on: chloroquine-sensitive NF54 strain of P. falciparum; experiment: In vitro antimalarial semiautomated microdilution assay ([3H]-hypoxanthine incorporation), NF54 strain; type: cell-based, Plasmodium falciparum; details: for IC50: Plasmodium falciparum, NF54, 72 h, read-out: IC50 (ng/ml) NF54, chloroquine-sensitive NF54 strain, 72 h incubation
Summary of the method: (§1)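 IC50 values come from Logit regression of [3H]-hypoxanthine uptake data. Parasites were intraerythrocytic P. falciparum forms taken from asynchronous stock cultures and tested by semiautomated microdilution.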

[5] = tested on: chloroquine-resistant K1 strain of P. falciparum; experiment: In vitro antimalarial semiautomated microdilution assay ([3H]-hypoxanthine incorporation), K1 strain; type: cell-based, Plasmodium falciparum; details: for IC50: Plasmodium falciparum, K1, 72 h, read-out: IC50 (ng/ml) K1, chloroquine-resistant K1 strain, 72 h incubation
Summary of the method: as §1

[6] = tested on: ANKA strain of P. berghei; experiment: Single dose STI in vivo screen in infected mice; set-up: species or system Plasmodium berghei; details: for Survival (days) 10 mg/kg po: single 10 mg/kg po in 3% ethanol and 7% Tween 80; for Survival (days) 10 mg/kg po / Survival (days) 10 mg/kg SSV po / Survival (days) 10 mg/kg sc: untreated 6-7 days; for Activity (%) 10 mg/kg po: single 10 mg/kg po in 3% ethanol and 7% Tween 80 on day 1 post-infection; for Activity (%) 10 mg/kg po / Activity (%) 10 mg/kg SSV po / Activity (%) 10 mg/kg sc: percent reduction in parasitemia on day 3; for Survival (days) 10 mg/kg SSV po: single 10 mg/kg po in SSV; for Activity (%) 10 mg/kg SSV po: single 10 mg/kg po in standard suspending vehicle (SSV) on day 1 post-infection; for Survival (days) 10 mg/kg sc: single 10 mg/kg sc in 3% ethanol and 7% Tween 80; for Activity (%) 10 mg/kg sc: single 10 mg/kg sc in 3% ethanol and 7% Tween 80 on day 1 post-infection

Row | Compound | ED90 [1] [mg/kg] | ED99 [1] [mg/kg] | IC50 [4] [ng/mL] | IC50 [5] [ng/mL] | Survival (days) 10 mg/kg po [6] [days] | Activity (%) 10 mg/kg po [6] | Survival (days) 10 mg/kg SSV po [6] [days] | Activity (%) 10 mg/kg SSV po [6] | Survival (days) 10 mg/kg sc [6] [days] | Activity (%) 10 mg/kg sc [6] | ED50 ([1]; Plasmodium berghei, po) [mg/kg] | other results
1 | C[C@H]1[C@@H](OCc2ccc(C(=O)O)cc2)O[C@@H]2O[C@@]3(C)CC[C@H]4[C@H](C)CC[C@@H]1[C@@]24OO3 [Artelinate, artelinate, reference compound] | 10 | 18 | – | – | – | – | – | – | – | – | – | ED50 [1]: 4.8 mg/kg
2 | OCCC1CCC2(CC1)OOC1(O2)C2CC3CC(C2)CC1C3 (stereo not shown) [OZ89] | – | – | – | – | – | – | – | – | – | – | – | % reduction of adult worms growth at day 49 after per os application of 400 mg/kg, TWR (%) [2]: 0%; Adult worms day 49, per os 400 mg/kg, DEAD WORM (%) [2]: 17%; % reduction of schistosomule growth at day 21 after per os application of 200 mg/kg, FWR (%) [3]: 81%; % reduction of schistosomule growth at day 21 after per os application of 200 mg/kg, TWR (%) [3]: 86%
3 | CC(C)(O)[C@H]1CC[C@]2(CC1)OOC1(O2)C2CC3CC(C2)CC1C3 (stereo partly shown) [OZ108] | – | – | 29 (≈ 89.9 nM) | 68 (≈ 211 nM) | 5.0 | 0/0/0% | 5.0 | 0/0/0% | 5.7 | 0/0/0% | – | % reduction of adult worms growth at day 49 after per os application of 400 mg/kg, TWR (%) [2]: 28%; Adult worms day 49, per os 400 mg/kg, DEAD WORM (%) [2]: 0%; % reduction of schistosomule growth at day 21 after per os application of 200 mg/kg, FWR (%) [3]: 28%; % reduction of schistosomule growth at day 21 after per os application of 200 mg/kg, TWR (%) [3]: 30%
4 | COCC(=O)N1CCC2(CC1)OOC1(O2)C2CC3CC(C2)CC1C3 (stereo not shown) [OZ113, Adamantane-2-spiro-3′-8′-methoxyacetyl-1′,2′,4′-trioxa-8′-azaspiro[4.5]decane] | 9.0 | 19 | 0.2 (≈ 0.593 nM) | 0.95 (≈ 2.82 nM) | 7.3 | 92% | 8.0 | 96% | 7.3 | 89% | 3.6 | –
5 | O=C(NO)[C@H]1CC[C@@]2(CC1)OOC1(O2)C2CC3CC(C2)CC1C3 (stereo partly shown) [OZ127] | 7.6 | 19 | 1.3 (≈ 4.02 nM) | 0.61 (≈ 1.89 nM) | 7.0 | 95% | 7.7 | 98% | 7.7 | 97% | 2.5 | –
6 | c1ncn(C[C@H]2CC[C@]3(CC2)OOC2(O3)C3CC4CC(C3)CC2C4)n1 (stereo partly drawn) [OZ177, cis-Adamantane-2-spiro-3′-8′-(1′H-1′,2′,4′-triazol-1′-ylmethyl)-1′,2′,4-trioxaspiro[4.5]decane] | 3.7 | 5.8 | – | – | – | – | – | – | – | – | 2.1 | IC50 (ng/ml) NF54 ([4]; chloroquine-sensitive NF54 strain, 72 h incubation): 1.7 ng/mL (≈ 4.92 nM); IC50 (ng/ml) K1 ([5]; chloroquine-resistant K1 strain, 72 h incubation): 0.9 ng/mL (≈ 2.61 nM); Survival (days) 10 mg/kg po ([6]; 10 mg/kg): 12.3 days; Activity (%) 10 mg/kg po ([6]; 10 mg/kg): 99.91%; Survival (days) 10 mg/kg SSV po ([6]; 10 mg/kg): 12.7 days; Activity (%) 10 mg/kg SSV po ([6]; 10 mg/kg): 99.88%; Survival (days) 10 mg/kg sc ([6]; 10 mg/kg): 17.7 days; Activity (%) 10 mg/kg sc ([6]; 10 mg/kg): 99.91%
7 | NC[C@H]1CC[C@]2(CC1)OOC1(O2)C2CC3CC(C2)CC1C3 (stereo partly shown) [OZ181] | 1.8 | 4.0 | – | – | – | – | – | – | – | – | 0.63 | Survival (days) 10 mg/kg po ([6]; 10 mg/kg): 9.0 days; Activity (%) 10 mg/kg po ([6]; 10 mg/kg): 99.98%; Survival (days) 10 mg/kg SSV po ([6]; 10 mg/kg): 10.0 days; Activity (%) 10 mg/kg SSV po ([6]; 10 mg/kg): 99.91%; Survival (days) 10 mg/kg sc ([6]; 10 mg/kg): 11.0 days; Activity (%) 10 mg/kg sc ([6]; 10 mg/kg): 100%
